The record followed here is patent US20070155764A1, “NOVEL SUBSTITUTED PYRIMIDINYLOXY UREAS USEFUL AS INHIBITORS OF PROTEIN KINASES” (KALYPSYS, INC., priority 2005, published 2007).

The target in data set [1] is T1, human B-Raf protein kinase (Homo sapiens, UniProt P15056).
T1 construct: GST (N); purchased Upstate Inc. 14-530 (B-Raf); 14-420 (Mek1)
Description: In vitro B-Raf/Mek1 composite kinase assay. The data set is classed as biochemical. As to conditions: recombinant GST-tagged human B-Raf (Δ1-415) with inactive Mek1, 2 μM ATP. The essentials: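 Luminescent ATP-depletion assay using recombinant N-terminal GST-tagged human B-Raf (Δ1-415, 1 ng/well) in MOPS pH 7.2 buffer with 10 mM MgCl2. Compounds were preincubated 15 min at about 22° C, then the reaction ran 2 h before PKLight readout. Efficacy is expressed as percentage of positive-control (Bay 43-9006) activity.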

The next data set has as its target T2, VEGFR2 kinase (Homo sapiens, UniProt P35968).
T2 construct: purchased Invitrogen Inc PV3660
Description: In vitro VEGFR2 kinase assay. The format is biochemical. The conditions noted are these: ADP Quest assay, poly Glu:Tyr substrate, 60 μM ATP. The essentials: (§1)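 Compound was preincubated 10 min at ~22 °C with 20 ng VEGFR2 or 25 ng PDGFRβ, then poly Glu:Tyr (4:1) substrate (0.25 μg) with 60 μM ATP (in added buffer) was reacted 2 h at 30 °C. ADP Quest resorufin fluorescence was read (ex 530/em 580) after 30 min. Efficacy is expressed as percent of positive-control (Bay 43-9006) activity, with DMSO as negative control.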

A further data set deals with T3, PDGFRβ kinase (Homo sapiens, UniProt P09619).
T3 construct: purchased Invitrogen Inc. P3082
Description: In vitro PDGFRβ kinase assay. The data set is classed as biochemical. The conditions noted are these: ADP Quest assay, poly Glu:Tyr substrate, 60 μM ATP. The essentials:
as §1

Data set [2] relates to HT-29 human colon carcinoma tumor cells. The data set can be described thus: In vivo anti-tumor activity, HT-29 xenograft. The conditions noted are these: 60 mg/kg once daily by oral gavage; for T/C (%): HT-29 subcutaneous tumors in female Balb/C nu/nu mice, treated/control average tumor size at end of study; for Survival: HT-29 tumor-bearing female Balb/C nu/nu mice, surviving/total. The method, then:
In Vivo Anti-Tumor Activity
Acclimated female Balb/C nu/nu mice are injected subcutaneously into the flank with cell pellets of 5×10^6 HT-29 human colon carcinoma tumor cells (ATCC #HTB-38). The mice are fed sterile rodent chow and water ad libitum, and kept in pathogen-free, sterile-filtered cages with half-day light/dark cycles. Tumors are allowed to grow until they reach an average size of 100-150 mm^3, determined by caliper measurement. One day before beginning treatment, mice are randomized by tumor size into evenly distributed cohorts. Mice are dosed once daily by oral gavage (10 ml/kg) with compounds formulated as solutions in Cremaphor EL:Ethanol:Water, at a 1:1:6 ratio. Control mice are dosed with the formulation vehicle only. Tumor size and mouse weight are monitored every three to four days. At the end of the study, treatment efficacy is determined by the T/C value, calculated by dividing the average tumor size of a compound-treated cohort by the average tumor size of the control-treated cohort, expressed as a percentage. Therefore, anti-tumor efficacy is inversely proportional to the T/C.

T3 sequence (P09619 33-1106): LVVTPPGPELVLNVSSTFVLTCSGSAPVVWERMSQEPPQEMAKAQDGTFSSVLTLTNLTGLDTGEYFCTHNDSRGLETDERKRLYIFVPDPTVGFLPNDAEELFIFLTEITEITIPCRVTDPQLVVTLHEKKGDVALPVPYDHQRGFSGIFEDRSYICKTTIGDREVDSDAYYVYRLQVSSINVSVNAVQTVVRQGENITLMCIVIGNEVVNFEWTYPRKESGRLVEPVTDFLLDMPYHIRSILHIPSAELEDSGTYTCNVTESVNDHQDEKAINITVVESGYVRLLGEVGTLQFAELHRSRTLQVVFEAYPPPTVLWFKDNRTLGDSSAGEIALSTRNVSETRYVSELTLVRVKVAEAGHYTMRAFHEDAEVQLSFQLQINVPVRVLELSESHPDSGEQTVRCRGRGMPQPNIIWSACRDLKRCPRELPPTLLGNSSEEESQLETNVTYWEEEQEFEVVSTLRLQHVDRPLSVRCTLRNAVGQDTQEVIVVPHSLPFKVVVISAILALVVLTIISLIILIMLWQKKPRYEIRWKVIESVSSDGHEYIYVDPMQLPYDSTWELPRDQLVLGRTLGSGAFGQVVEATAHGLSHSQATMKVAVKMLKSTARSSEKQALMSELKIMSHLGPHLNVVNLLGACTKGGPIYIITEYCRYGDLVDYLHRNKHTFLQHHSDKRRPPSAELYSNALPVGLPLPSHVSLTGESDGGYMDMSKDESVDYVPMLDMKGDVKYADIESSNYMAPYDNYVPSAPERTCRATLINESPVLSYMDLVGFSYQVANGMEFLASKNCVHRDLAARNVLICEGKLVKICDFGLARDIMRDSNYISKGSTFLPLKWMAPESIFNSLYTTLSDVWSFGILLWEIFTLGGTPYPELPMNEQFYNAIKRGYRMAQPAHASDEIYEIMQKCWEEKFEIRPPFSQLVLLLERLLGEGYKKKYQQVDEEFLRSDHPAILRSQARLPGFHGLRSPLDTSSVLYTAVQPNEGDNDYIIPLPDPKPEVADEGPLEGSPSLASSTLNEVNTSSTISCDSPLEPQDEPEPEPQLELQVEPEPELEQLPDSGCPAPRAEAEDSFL
T1 sequence (P15056 416-766): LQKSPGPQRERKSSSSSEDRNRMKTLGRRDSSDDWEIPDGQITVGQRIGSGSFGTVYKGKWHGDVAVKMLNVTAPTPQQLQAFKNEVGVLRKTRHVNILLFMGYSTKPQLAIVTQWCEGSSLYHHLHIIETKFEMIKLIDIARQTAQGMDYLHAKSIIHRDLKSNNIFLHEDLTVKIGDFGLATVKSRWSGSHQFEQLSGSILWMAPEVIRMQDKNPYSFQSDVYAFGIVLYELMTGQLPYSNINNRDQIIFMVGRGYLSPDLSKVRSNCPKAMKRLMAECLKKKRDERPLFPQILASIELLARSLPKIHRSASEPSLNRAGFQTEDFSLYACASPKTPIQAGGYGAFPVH
T2 sequence (P35968 20-1356): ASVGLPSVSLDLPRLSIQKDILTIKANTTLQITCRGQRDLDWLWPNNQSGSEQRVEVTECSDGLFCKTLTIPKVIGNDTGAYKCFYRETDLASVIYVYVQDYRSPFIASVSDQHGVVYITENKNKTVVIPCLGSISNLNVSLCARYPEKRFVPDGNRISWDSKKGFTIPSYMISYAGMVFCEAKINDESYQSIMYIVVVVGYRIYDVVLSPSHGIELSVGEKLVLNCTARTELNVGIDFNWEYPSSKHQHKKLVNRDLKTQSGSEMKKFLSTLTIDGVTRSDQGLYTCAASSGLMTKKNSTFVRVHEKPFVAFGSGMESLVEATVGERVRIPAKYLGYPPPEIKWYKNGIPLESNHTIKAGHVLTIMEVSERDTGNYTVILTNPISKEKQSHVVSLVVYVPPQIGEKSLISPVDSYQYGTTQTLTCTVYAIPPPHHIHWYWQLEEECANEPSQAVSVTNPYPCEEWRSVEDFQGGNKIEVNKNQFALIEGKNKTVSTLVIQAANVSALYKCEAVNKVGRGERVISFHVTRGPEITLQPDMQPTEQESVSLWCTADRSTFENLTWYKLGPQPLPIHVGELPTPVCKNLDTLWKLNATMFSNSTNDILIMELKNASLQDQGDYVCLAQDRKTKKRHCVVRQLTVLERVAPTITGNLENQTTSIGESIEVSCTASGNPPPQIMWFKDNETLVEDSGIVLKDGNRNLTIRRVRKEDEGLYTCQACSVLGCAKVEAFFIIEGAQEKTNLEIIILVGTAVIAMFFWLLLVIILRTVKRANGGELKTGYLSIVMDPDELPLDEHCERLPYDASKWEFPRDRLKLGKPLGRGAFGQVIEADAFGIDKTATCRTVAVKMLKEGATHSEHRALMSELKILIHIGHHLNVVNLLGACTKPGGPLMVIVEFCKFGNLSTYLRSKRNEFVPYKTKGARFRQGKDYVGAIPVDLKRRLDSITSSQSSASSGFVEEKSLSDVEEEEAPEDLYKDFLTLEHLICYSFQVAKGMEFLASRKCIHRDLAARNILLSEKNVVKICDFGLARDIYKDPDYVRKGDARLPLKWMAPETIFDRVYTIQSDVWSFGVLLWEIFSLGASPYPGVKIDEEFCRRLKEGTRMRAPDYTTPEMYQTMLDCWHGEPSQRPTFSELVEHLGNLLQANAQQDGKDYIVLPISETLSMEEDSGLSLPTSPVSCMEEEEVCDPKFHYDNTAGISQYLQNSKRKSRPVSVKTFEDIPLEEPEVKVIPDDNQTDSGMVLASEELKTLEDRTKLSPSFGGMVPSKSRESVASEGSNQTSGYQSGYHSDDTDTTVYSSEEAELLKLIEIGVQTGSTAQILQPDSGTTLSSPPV

Broadly, the IC50 is the concentration needed to halve the response being measured. On to `Cn1cc(-c2cc(Oc3cccc(NC(=O)Nc4ccc(Cl)c(C(F)(F)F)c4)c3)ncn2)cn1` [Example 34, 1-(4-Chloro-3-(trifluoromethyl)phenyl)-3-(3-(6-(1-methyl-1H-pyrazol-4-yl)pyrimidin-4-yloxy)phenyl)urea], for which the IC50 (in data set [1]; at VEGFR2 kinase; against PDGFRβ kinase) was at most 10 µM throughout. Also, in data set [2], the “T/C (%)” value was 20%. In data set [2], the Survival is 10/10.
In the case of `Cn1cc(-c2nccc(Oc3ccc(NC(=O)Nc4ccc(Cl)c(C(F)(F)F)c4)cc3)n2)cn1` [Example 65, 1-(4-Chloro-3-(trifluoromethyl)phenyl)-3-(4-(2-(1-methyl-1H-pyrazol-4-yl)pyrimidin-4-yloxy)phenyl)urea], the IC50 (in data set [1]; against VEGFR2 kinase; on PDGFRβ kinase) was at most 10 µM in each case. Besides, the “T/C (%)” value in data set [2] is 25%. Further, in data set [2], the Survival is 10/10.
`Cn1cc(-c2cc(Oc3ccc(F)c(NC(=O)Nc4ccc(Cl)c(C(F)(F)F)c4)c3)ncn2)cn1` [Example 66, 1-(4-Chloro-3-(trifluoromethyl)phenyl)-3-(2-fluoro-5-(6-(1-methyl-1H-pyrazol-4-yl)pyrimidin-4-yloxy)phenyl)urea]: the half-maximal inhibitory concentration (IC50) (in data set [1]; against VEGFR2 kinase; against PDGFRβ kinase) was at most 10 µM in each case. Further, the “T/C (%)” value in data set [2] is reported as 11%. The Survival in data set [2] is 10/10.
For `Cn1cc(-c2cc(Oc3cccc(NC(=O)Nc4ccc(C(F)(F)F)cc4)c3)ncn2)cn1` [Example 87, 1-(3-(6-(1-Methyl-1H-pyrazol-4-yl)pyrimidin-4-yloxy)phenyl)-3-(4-(trifluoromethyl)phenyl)urea], the IC50 (in data set [1]; at VEGFR2 kinase; at PDGFRβ kinase) was at most 10 µM in each case. Besides, the “T/C (%)” value in data set [2] is 15%. The Survival in data set [2] was 10/10.
